Assay results as given in article PMC9738531, “Cholinesterases Inhibition, Anticancer and Antioxidant Activity of Novel Benzoxazole and Naphthoxazole Analogs” (Molecules, 2022).
Like-named read-outs stand apart in the source and are kept apart here.

What was measured:
[1] = Lipophilicity by RP-18 HPLC chromatography; type: physicochemical; details: for -S (slope of log k vs MeOH fraction): MeOH/acetate buffer, pH 7.4; for log kw: pH 7.4, extrapolation to pure water as mobile phase
Source text: The lipophilicity parameter was estimated for the tested compounds as it is an important feature that influences the pharmacokinetic properties of bioactive compounds [46, 47]. Lipophilicity also determines some biological activities, such as the antiproliferative or fungistatic activity. For lipophilicity determination, reversed-phase column chromatography was used, with the octadecyl C-18 stationary phase and MeOH as the organic modifier in the isocratic conditions.
HPLC measurements were performed using a liquid chromatograph (Knauer, Berlin, Germany) with a dual pump and a UV-visible detector. The measurements were made at 254 or 320 nm at room temperature. A Eurosil Bioselect C18 (5 μm, 300 × 4.6 mm) column was applied as the stationary phase. The mobile phase consisted of different volume mixtures of 20 mM acetate buffer as the aqueous phase, and MeOH as the organic modifier (pH 7.4). The different concentrations of MeOH from 0.5 to 0.90 (v/v) range was used, depending on the structure of the compound at 0.05 intervals. The flow rate was 1 mL/min. Retention time of an unretained solute (t0) was determined by the injection of a small amount of acetone dissolved in water.
Regular changes in the retention coefficients of compounds in a function of the organic modifier MeOH content in the mobile phase are described by the Soczewiński–Wachtmeister equation [56]:log k = log kw + S φ(1)
φ—the volume fraction of organic modifier (MeOH) in the mobile phase; log kw—the intercept; S—slope of the regression curve. Log kw refers to the retention parameter of a compound with pure water as the mobile phase.

[2] = test system: HCV29T (bladder cancer) cells; experiment: SRB antiproliferative assay, HCV29T; type: cell-based, human; details: 72 h, means ± SD, read-out: IC50 HCV 29T
Description: (§1) The compounds were also evaluated for their antiproliferative potencies against human cancer cell lines as the potential anticancer agents. […]. The results are presented in Table 3 and expressed as IC50 (μM). In that score, the highest potency was shown by the analogs from the naphtho[1,2-d][1,3]oxazole group 8–10, particularly by derivative 10 with a chlorine atom on the benzenediol moiety.
(§2) In the antiproliferative assay in vitro, the following human cell lines were applied: T47D (breast cancer), SW707 (rectal adenocarcinoma), A549 (non-small cell lung carcinoma) from the American Type Culture Collection (Rockville, MD, USA) and HCV29T (bladder cancer) from the Fibiger Institute, Copenhagen, Denmark. Cytotoxicity assay was performed after 72 h exposure of the cultured cells at the concentration ranging from 0.1 to 100 μg/mL of the tested agents. The SRB test measuring the cell proliferation inhibition in the in vitro culture was applied. The cellular material fixed with TCA was stained with 0.4% sulforhodamine B (Chemie GmbH, Steinheim, Germany) dissolved in 1% acetic acid (POCh, Gliwice, Poland) for 30 min.

[3] = test system: SW707 (rectal adenocarcinoma) cells; experiment: SRB antiproliferative assay, SW707; type: cell-based, human; details: means ± SD, read-out: IC50 SW 707
Description: as §1, §2

[4] = test system: T47D (breast cancer) cells; experiment: SRB antiproliferative assay, T47D; type: cell-based, human; details: 72 h, means ± SD
Description: as §1, §2

[5] = test system: A549 (non-small cell lung carcinoma) cells; experiment: SRB antiproliferative assay, A549; type: cell-based, human; details: means ± SD
Description: as §1, §2

[6] = test system: normal keratinocytes HaCaT cells; experiment: LDH cytotoxicity assay, HaCaT normal cells; type: cell-based, human; details: 72 h
Description: (§3) In view of the observed antiproliferative activity, the influence of the tested compounds on the normal human cells—normal mammary gland epiterial cells of the MCF10A line and the normal keratenocytes HaCaT line—was examined (Figure 5). The cells were treated with compounds 3, 8 and 10 in the concentration range from 0.1 µM to 25 µM for 72 h, after which the cell viability was tested by analysis of the level of released lactate dehydrogenase (LDH method).
(§4) Normal human epithelial cells from the mammary gland, MCF10A (a generous gift from our colleague Dr. Saraswati Sukumar (JHU), who obtained them recently from ATCC), and normal human keratinocytes HaCaT (also obtained from ATCC), were cultured in DMEM/F12 medium (Gibco), supplemented with 5% horse serum (Gibco), 5% FBS (Sigma-Aldrich Chemie GmbH, Taufkirchen, Germany ), penicillin streptomycin solution (1×) (Gibco) at 37 °C and 5% CO2. The cells were subcultured twice a week.
(§5) Human epiterial breast cells MCF10A and human keratinocytes HaCaT (1 × 10^4/mL) cells were placed on 96-well plates (Nunc, Roskilde, Denmark). The next day, the cells were exposed to increasing concentrations of compounds 3, 8 and 10 in 0.1, 0.25, 0.5, 1, 2.5, 5, 10 and 25 μM in fresh culture medium. Cytotoxicity was estimated based on the measurements of cytoplasmic lactate dehydrogenase (LDH) activity released from the damaged cells after the 72 h exposure to the compounds. The LDH assay was performed according to the manufacturer’s instructions (Cytotoxicity Detection KitPLUS LDH, Roche, Mannheim, Germany). Absorbance was measured using a microplate at two different wavelengths: “measurement wavelength” (492 nm) and “reference wavelength” (690 nm), using a microplate.

[7] = molecular target: T1, Acetylcholinesterase (AChE, E.C. 3.1.1.7, from human erythrocytes) (Homo sapiens, UniProt P22303); experiment: biochemical; details: for Selectivity for AChE: IC50 (BChE)/IC50 (AChE); for IC50: means ± SEM of three independent experiments
T1 construct: Acetylcholinesterase (AChE, E.C. 3.1.1.7, from human erythrocytes); purchased Sigma-Aldrich (Steinheim, Germany); host or cells: human erythrocytes (natural source)
Description: (§6) The compounds were evaluated by an in vitro assay as the AChE and BChE inhibitors. The studies were carried out using the modified Ellman’s method. […] The inhibitory activities against AChE and BChE of the newly-synthesized compounds were determined exactly, according to a previous paper. […] The samples were analysed in triplicate. IC50 values were designated from a dose–response curve obtained by plotting the percentage of inhibition versus the log concentration, using GraphPad Prism 8 software. […] AChE and BChE activity data were compared using the Kruskal–Wallis test at the significance level of 1%.

[8] = molecular target: T2, butyrylcholinesterase (BChE, E.C. 3.1.1.8, from equine serum) (Equus caballus, UniProt P81908); experiment: biochemical; details: means ± SEM of three independent experiments
T2 construct: butyrylcholinesterase (BChE, E.C. 3.1.1.8, from equine serum); purchased Sigma-Aldrich (Steinheim, Germany); host or cells: equine serum (natural source)
Description: as §6

[9] = DPPH free radical scavenging activity; details: concentration scavenging 50% of DPPH radicals; means ± SD of three experiments
Description: To evaluate the antioxidant potential of compounds as radical scavengers versus the stable free radicals, 2,2-diphenylpicrylhydrazyl (DPPH) was applied. Antioxidant properties were expressed as the IC50 value—the concentration of compound required for scavenging 50% of DPPH radicals. […].
The DPPH free radical scavenging activities of the synthesized compounds were measured by DPPH, according to the method described in the paper. The free radical scavenging activity was measured as a decrease in the absorbance of DPPH, and calculated using the equation:DPPH scavenging effects (%) = […] [(A0 − A1)/A0]∙100](2) where: A0 was the absorbance of the control reaction and A1 absorbance in the presence of the sample of the analysed compounds [62]. The IC50 values were calculated as the concentration of compound required for scavenging 50% of DPPH [45]. Results were presented as the mean ± standard deviation (SD). The antioxidant activity data were compared using the one-way ANOVA test at the significance level 5%.

[10] = test system: normal mammary gland MCF10A cells; experiment: LDH cytotoxicity assay, MCF10A normal cells; type: cell-based, human; details: 72 h
Description: as §3, §4, §5

T1 sequence (P22303 other isoform, or with tags, fused parts or gaps): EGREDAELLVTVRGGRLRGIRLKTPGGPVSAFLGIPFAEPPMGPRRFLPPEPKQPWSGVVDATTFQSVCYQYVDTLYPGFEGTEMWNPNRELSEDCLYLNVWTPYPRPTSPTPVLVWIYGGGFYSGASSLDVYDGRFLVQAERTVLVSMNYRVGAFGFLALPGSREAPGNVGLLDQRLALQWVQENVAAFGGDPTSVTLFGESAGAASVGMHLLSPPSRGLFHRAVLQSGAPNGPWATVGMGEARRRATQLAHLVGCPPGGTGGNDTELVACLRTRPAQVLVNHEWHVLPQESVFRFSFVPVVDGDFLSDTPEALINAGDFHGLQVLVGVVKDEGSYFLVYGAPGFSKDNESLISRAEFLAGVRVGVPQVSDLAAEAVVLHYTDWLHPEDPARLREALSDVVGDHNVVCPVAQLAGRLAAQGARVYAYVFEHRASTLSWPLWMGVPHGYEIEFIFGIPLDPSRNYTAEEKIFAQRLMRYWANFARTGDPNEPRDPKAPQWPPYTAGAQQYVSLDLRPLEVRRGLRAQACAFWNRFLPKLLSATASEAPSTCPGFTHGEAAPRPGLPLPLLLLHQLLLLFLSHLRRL
T2 sequence (P81908 whole entry): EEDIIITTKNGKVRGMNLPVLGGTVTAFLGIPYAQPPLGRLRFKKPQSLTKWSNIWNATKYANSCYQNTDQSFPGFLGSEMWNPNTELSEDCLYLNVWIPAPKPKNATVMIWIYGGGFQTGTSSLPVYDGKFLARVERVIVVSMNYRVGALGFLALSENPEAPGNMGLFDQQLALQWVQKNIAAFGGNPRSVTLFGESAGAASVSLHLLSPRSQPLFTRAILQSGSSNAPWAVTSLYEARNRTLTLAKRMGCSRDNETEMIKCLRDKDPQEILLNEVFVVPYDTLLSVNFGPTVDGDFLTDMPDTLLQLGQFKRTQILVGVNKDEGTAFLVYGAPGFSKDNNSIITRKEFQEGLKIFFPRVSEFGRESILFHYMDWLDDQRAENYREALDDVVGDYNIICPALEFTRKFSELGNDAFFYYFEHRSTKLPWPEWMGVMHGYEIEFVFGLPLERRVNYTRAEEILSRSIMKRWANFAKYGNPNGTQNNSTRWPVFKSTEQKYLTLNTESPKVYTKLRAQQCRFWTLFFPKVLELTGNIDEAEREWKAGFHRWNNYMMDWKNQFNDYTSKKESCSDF

SMILES | -S (slope of log k vs MeOH fraction) [1] | log kw [1] | IC50 ([2]; Homo sapiens, HCV29T) | IC50 ([3]; Homo sapiens, SW707, 72 h) | IC50 ([4]; Homo sapiens, T47D) | IC50 ([5]; Homo sapiens, A549, 72 h) | toxicity to keratinocytes (LDH release) ([6]; HaCaT, 0.1–10 µM) | change in lactate dehydrogenase levels ([6]; HaCaT, 2.5, 5 and 10 µM, vs control) | Selectivity for AChE [7] | IC50 [7] | IC50 [8] | IC50 [9] | toxicity to normal breast cells (LDH release) ([10]; 0.1–10 µM) | change in lactate dehydrogenase levels ([10]; 5 and 10 µM, vs control) | IC50 ([3]; 72 h) | IC50 [4] | IC50 [2] | IC50 ([5]; 72 h)
Oc1ccc(-c2nc3ccccc3o2)c(O)c1 [Compound 1, 4-(1,3-Benzoxazol-2-yl)benzene-1,3-diol] | 4.358 | 3.273 | 33.9 ± 4.77 µM |  |  |  |  |  |  |  |  |  |  |  |  |  |  | 
Cc1c(O)ccc(-c2nc3ccc(O)cc3o2)c1O [Compound 2, 4-(6-Hydroxy-1,3-benzoxazol-2-yl)-2-methylbenzene-1,3-diol] | 4.64 | 3.301 | 8.34 ± 1.53 µM | 4.38 ± 1.57 µM | 5.28 ± 0.16 µM | 6.81 ± 2.23 µM |  |  |  |  |  |  |  |  |  |  |  | 
COC(=O)c1ccc2nc(-c3ccc(O)cc3O)oc2c1 [Compound 3, Methyl 2-(2,4-dihydroxyphenyl)-1,3-benzoxazole-6-carboxylate] | 5.325 | 2.92 | 6.43 ± 1.12 µM | 5.47 ± 2.16 µM | 3.37 ± 1.52 µM | 4.28 ± 0.55 µM | not toxic | statistically significant reduction | 10.017 | 0.113 ± 0.011 µM | 1.13 ± 0.016 µM | 0.286 ± 0.122 µM | not toxic | statistically significant reduction |  |  |  | 
COC(=O)c1ccc2nc(-c3ccc(O)c(C)c3O)oc2c1 [Compound 4, Methyl 2-(2,4-dihydroxy-3-methylphenyl)-1,3-benzoxazole-6-carboxylate] | 5.002 | 3.411 | 4.64 ± 0.93 µM | 3.36 ± 0.84 µM | 3.2 ± 0.84 µM | 3.71 ± 0.4 µM |  |  |  |  |  |  |  |  |  |  |  | 
CCc1cc(-c2nc3ccc(C(=O)OC)cc3o2)c(O)cc1O [Compound 5, Methyl 2-(5-ethyl-2,4-dihydroxyphenyl)-1,3-benzoxazole-6-carboxylate] | 5.855 | 3.774 | 3.54 ± 1.05 µM | 2.13 ± 0.49 µM | 4.11 ± 1.27 µM | 3.08 ± 0.26 µM |  |  |  |  |  |  |  |  |  |  |  | 
COC(=O)c1ccc2nc(-c3cc(Cl)c(O)cc3O)oc2c1 [Compound 6, Methyl 2-(5-chloro-2,4-dihydroxyphenyl)-1,3-benzoxazole-6-carboxylate] | 5.477 | 4.223 | 7.54 ± 3.15 µM | 6.04 ± 0.89 µM | 6.61 ± 2.48 µM | 10.5 ± 5.61 µM |  |  | 0.394 | 0.831 ± 0.014 µM | 0.328 ± 0.027 µM | 0.861 ± 0.071 µM |  |  |  |  |  | 
COC(=O)c1ccc2nc(-c3ccc(O)c(O)c3O)oc2c1 [Compound 7, Methyl 2-(2,3,4-trihydroxyphenyl)-1,3-benzoxazole-6-carboxylate] | 4.811 | 2.800 | 23.3 ± 4.07 µM |  |  |  |  |  | 3.644 | 0.183 ± 0.031 µM | 0.667 ± 0.004 µM | 0.887 ± 0.064 µM |  |  |  |  |  | 
CCc1cc(-c2nc3c(ccc4ccccc43)o2)c(O)cc1O [Compound 9, 4-Ethyl-6-(naphtho[1,2-d][1,3]oxazol-2-yl)benzene-1,3-diol] | 5.395 | 4.901 | 3.72 ± 0.36 µM | 8.58 ± 3.4 µM | 7.28 ± 2.5 µM | 4.94 ± 0.69 µM |  |  | 1.971 | 0.516 ± 0.009 µM | 1.02 ± 0.032 µM | 0.214 ± 0.024 µM |  |  |  |  |  | 
N.N.[Cl][Pt][Cl] [cisplatin, reference compound] |  |  |  |  |  |  |  |  |  |  |  |  |  |  | 3.65 ± 0.76 µM | 4.01 ± 1.58 µM | 2.4 ± 0.32 µM | 3.07 ± 0.45 µM
O=c1c(O)c(-c2ccc(O)c(O)c2)oc2cc(O)cc(O)c12 [quercetin, reference compound] |  |  |  |  |  |  |  |  |  |  |  | 0.032 ± 0.001 µM |  |  |  |  |  | 
